PMC7316490, “Dihydrofolate Reductase Is a Valid Target for Antifungal Development in the Human Pathogen Candida albicans” (mSphere, 2020)
Read-outs that look alike come from different tables or passages of the source.

What was measured:
[1] = molecular target: T1, Candida albicans dihydrofolate reductase (Candida albicans, UniProt P22906); experiment: biochemical; format: biochemical; settings: for inhibition of C. albicans DHFR (in words): dose-response experiments, purified enzyme
T1 construct: The optimized DFR1 ORF was then cloned into pET15b; 6xHis; host or cells: Escherichia coli
T1 sequence (P22906 1-192): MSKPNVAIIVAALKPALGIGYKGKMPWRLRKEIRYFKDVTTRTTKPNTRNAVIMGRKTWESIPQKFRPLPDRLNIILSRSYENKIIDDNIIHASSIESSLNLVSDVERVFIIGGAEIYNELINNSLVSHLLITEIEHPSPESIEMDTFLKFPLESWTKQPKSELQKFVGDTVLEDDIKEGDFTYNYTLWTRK
Description: Finally, we tested a panel of additional antifolates to examine the relationship between their antifungal potencies and capacities to inhibit C. albicans DHFR. The enzyme was purified using a 6×His tag ([45], [46]), and activity was detected by measuring the conversion of NADPH to NADP^+ at an optical density at 340 nm (OD340) ([34]).
The C. albicans DFR1 open reading frame (ORF) sequence was retrieved from the Candida Genome Database ([68]) and was codon optimized for expression in Escherichia coli. The optimized DFR1 ORF was then cloned into pET15b ([69]) to allow propagation and expression of C. albicans Dfr1p in E. coli. Cultures of E. coli transformed with pET15b-CaDfr1p (Biomatik) were grown overnight in LB plus ampicillin. The culture was diluted 1:100 into fresh medium and incubated at 35°C for 6 h; then Dfr1p expression was induced with isopropyl-β-D-thiogalactopyranoside (IPTG) at a final concentration of 0.5 mM for 16 h. Cells were collected by centrifugation and resuspended in binding buffer (6 g/liter Tris base, pH 7.5, 8.8 g/liter NaCl, 1 mM dithiothreitol [DTT], 0.68 g/liter imidazole, 5% glycerol, 1× protease inhibitor). Resuspended cells were lysed with 1 mg/ml chicken white lysozyme (Sigma) for 60 min at 4°C. Then, Triton X-100 and NaCl were added to 0.1% and 0.5 M, respectively. The lysate was then centrifuged, and the supernatant was collected. The supernatant was added to nickel resin beads (Sigma) and incubated at 4°C for 30 min with rotation. The buffer was removed, and the beads were washed twice with binding buffer. Then the beads were suspended in elution buffer (6 g/liter Tris base, pH 7.5, 8.8 g/liter NaCl, 1 mM DTT, 34 g/liter imidazole, 5% glycerol) and incubated at 4°C for 30 min. The elution was removed and then run on SDS-PAGE gels (Sigma) to confirm the presence of CaDfr1p. SDS-PAGE gels were run according to the manufacturer’s protocol.
The enzymatic activity of C. albicans Dfr1p was determined using a dihydrofolate reductase assay (Sigma). The manufacturer’s protocol was adapted to the fungal enzyme by scaling down the volume to 100-μl reaction mixtures with 88 μl of buffer, 6 μl of a 1 mM NADPH stock, 5 μl of a 1 mM DHF stock, and 1 μl of 3-mg/ml purified enzyme. The loss of NADPH was quantified as the decrease in absorption at the OD340 over a 30-min time frame. The IC50 was calculated by converting the change in the OD340 value per minute into the amount of THF produced per minute and then compared to the level in an untreated control.

[2] = tested on: wild-type C. albicans strain (SC5314); experiment: Antifungal susceptibility testing (dose-response growth, OD600); format: cell-based, Candida albicans; settings: for C. albicans growth inhibition (in words): YNB medium, pH 5 and pH 7; for MIC: Candida albicans, SC5314, YNB medium buffered to either pH 5 or 7
Protocol: A wild-type C. albicans strain (SC5314) was seeded at 1 × 10^4 cells/ml into YNB medium without folate or PABA with the indicated supplements and increasing concentrations of MTX. After 48 h of incubation at 30°C, growth was quantified as the OD600 value and expressed as a percentage of the value for the DMSO-treated control. The values presented here are the average of two replicates and are representative of two independent experiments.
Approximately 1 × 10^4 cells/ml of a wild-type C. albicans strain was seeded into a 96-well plate with increasing concentrations of MTX in YNB pH 5, YNB pH 7, and RPMI pH 7 media. After 48 h, the OD600 was measured and expressed as a percentage of the value for the DMSO-treated control. The results presented here are the averages of two replicates and are representative of two independent experiments.
Stock solutions of MTX were prepared at 10 mM in dimethyl sulfoxide (DMSO) and diluted as needed in the same solvent. […] The final concentration of DMSO was 0.5% for all treatments. Plates were then incubated at 30°C before growth was quantified after 24 and 48 h by measuring the OD600 using a Cytation 5 plate reader (Bio-Tek Instruments, Inc.). MIC50 values were identified visually using the CLSI antifungal susceptibility assay and then confirmed by quantifying growth by the OD600 value. The growth of each strain at each drug concentration was then expressed relative to that of the DMSO-alone control. The susceptibility to MTX at the highest concentration at each pH was compared to that of the other pH values using a two-tailed Student's t test.

[3] = tested on: disseminated Candida infections; settings: cited from earlier work; for fraction of patients nonresponsive to treatment: patients with disseminated Candida infections
PTET98-DFR1 strain [4] = experiment: Passaging of doxycycline-repressible strain in fetal bovine serum; format: cell-based; settings: Candida albicans, read-out: growth inhibition
Protocol: FIG 2 Dfr1p is essential for Candida albicans growth in vitro. A dfr1Δ/PTETO98-DFR1 strain was sequentially passaged in YPD broth (A), YNB broth (B), or fetal bovine serum (C), each supplemented with 5 μg/ml doxycycline (DOX). Following inoculation at approximately 5 × 10^5 cells/ml, each culture was incubated at 30°C for 24 h, and growth was measured after 24 h as the OD600 value. Relative growth was then expressed as a percentage of the untreated control, i.e., without doxycycline. The values presented here are representative of two independent experiments.
A combination of dTMP, adenine, histidine, and methionine, each of which requires folate for its biosynthesis, is sufficient to partially restore S. cerevisiae growth following treatment with antifolates ([36]). However, these supplements were not sufficient to restore C. albicans growth in the presence of MTX (Fig. 3). […] Finally, we examined if C. albicans was able to scavenge sufficient folates or folate-dependent metabolites from blood serum to negate the need for de novo biosynthesis. The PTET98-DFR1 strain was passaged for 3 days in 100% fetal bovine serum (FBS) with or without doxycycline. In the first passage, doxycycline inhibited growth by ∼60%, with increasing growth inhibition seen in subsequent subcultures (Fig. 2C). […]

PTET98-DFR1 strain [5] = experiment: Mouse model of disseminated candidiasis; format: in vivo, BALB/c mice
Protocol: Next, we determined if DFR1 expression is essential for C. albicans virulence in a mammalian host using a mouse model of disseminated candidiasis. Female BALB/c mice were split into two treatment groups: group 1 was treated with doxycycline in a gel food formulation from 72 h before infection and for the duration of the experiment; group 2 was mock treated using unsupplemented gel food. The mice were then infected with ∼5 × 10^5 yeast cells of the PTET98-DFR1 strain via the lateral tail vein, and their health was monitored for 12 days. […] All mice in the mock-treated group succumbed to the infection by day 7 (Fig. 5A), confirming the virulence of the PTET98-DFR1 strain under nonrepressing conditions. […] On day 12, surviving animals were euthanized, kidneys were extracted and homogenized, and levels of fungal colonization were determined as CFU counts. […] To determine if suppression of Dfr1p activity is sufficient to resolve an established infection, a second experiment was performed in which mice were infected with the PTET98-DFR1 strain, and doxycycline treatment was initiated 24-h postinfection. […] Furthermore, C. albicans is unable to scavenge sufficient sources of folate to survive within mammalian tissue, and de novo biosynthesis is required. Indeed, the antifungal efficacy achieved upon repressing Dfr1p expression appears to be similar to that attained upon suppression of Erg11p expression. Accordingly, DHFR and likely other FOL pathway enzymes can provide potentially efficacious targets for antifungal development.
FIG 5 Dfr1p is essential for Candida albicans virulence in a mouse model of disseminated candidiasis. Groups of BALB/c mice (n = 6) were inoculated with ∼5 × 10^5 CFU of either the dfr1Δ/PTET98-DFR1 strain or the erg11Δ/PTETO-ERG11 strain via the lateral tail vein injections. The Erg11p strain was included to compare the antifungal efficacy of targeting Dfr1p with a previously validated target. The mice were monitored three times daily for 12 days, and those showing signs of distress were humanely euthanized. Mice were treated with 2 mg/g doxycycline (DOX) or mock treated with vehicle alone provided in a gel food formulation from 72 h prior to infection and throughout the duration of the experiment. […].
All animal experiments were done according to protocols approved by the University of Tennessee Institutional Animal Care and Use Committee. Groups of 6- to 8-week-old female BALB/c mice (Charles River Laboratories) were randomly assigned to one of three treatment groups 3 days before infection. Group 1 (minus doxycycline) was provided 20 g of DietGel (clear H2O) per day, per cage of 4 mice, while group 2 (plus doxycycline) was provided the same diet supplemented with 2 mg/ml of doxycycline hyclate. Group 3 (posttreatment) mice were given the DietGel without doxycycline until 24 h after infection and were administered 10 mg/kg of doxycycline through oral gavage at […], 24, and 36 h postinfection. Treatment was maintained daily for the duration of the experiment (up to 12 days postinfection). Each C. albicans strain was grown overnight in YPD cultures at 30°C (200 rpm). Cells were washed twice in sterile endotoxin-free phosphate-buffered saline (PBS), and cell density was determined using a hemocytometer. […] Mice were monitored for 12 days, and those showing distress were euthanized. Survival data were plotted on a Kaplan-Meier curve and analyzed by a log rank (Mantel-Cox) test using GraphPad Prism, version 8.00. […]

[6] = doxycycline treatment initiated 24-h postinfection

In the case of `CCc1nc(N)nc(N)c1-c1ccc(Cl)cc1` [Pyrimethamine, pyrimethamine], the IC50 [1] is reported as 100 nM, the “inhibition of C. albicans DHFR (in words)” value [1] is reported as “inhibited C. albicans DHFR activity” and the “C. albicans growth inhibition (in words)” value [2] is reported as “failed to inhibit C. albicans growth at either pH”.

For `C[C@@H](c1nc(-c2ccc(C#N)cc2)cs1)[C@](O)(Cn1cncn1)c1cc(F)ccc1F` [isavuconazole], the “fraction of patients nonresponsive to treatment” value (from here on “fraction”) [3] is listed as “approximately one-third”.

In the case of `C[C@@H](c1ncncc1F)[C@](O)(Cn1cncn1)c1ccc(F)cc1F` [voriconazole], the “fraction” value [3] is listed as “approximately one-third”.

With `[H]/N=C(\N/C(=N/[H])Nc1ccc(Cl)cc1)NC(C)C` [Proguanil, proguanil] the “inhibition of C. albicans DHFR (in words)” value [1] was “lacked activity”, the IC50 ([1]; purified C. albicans DHFR (6×His tag), read-out: IC50) was > 10000 nM and the MIC [2] was > 25 µM.

In the case of `COc1cc(Cc2cnc(N)nc2N)cc(OC)c1OC` [Trimethoprim, trimethoprim], the MIC [2] is reported as > 25 µM.

In the case of `C[C@H]1c2cccc(O)c2C(=O)C2=C(O)[C@]3(O)C(=O)C(C(N)=O)=C(O)[C@@H](N(C)C)[C@@H]3[C@@H](O)[C@@H]21` [doxycycline], the inhibition at 5 µg/mL (PTET98-DFR1 strain [4]) is reported as ~60%, the “kidney fungal colonization (CFU) on day 12” value (PTET98-DFR1 strain [5]; doxycycline from 72 h before infection) is reported as 5 of the 8 surviving mice had undetectable levels of fungal colonization and the survival (PTET98-DFR1 strain [5]; doxycycline in gel food from 72 h before infection, monitored 12 days) is reported as “all doxycycline-treated mice survived for the duration of the experiment”. The “kidney fungal colonization at end of experiment” value (PTET98-DFR1 strain [5]; [6]) was “Half of these mice had undetectable levels of fungal colonization”, the “time to resolution of initial symptoms” value (PTET98-DFR1 strain [5]; [6]) was ≤ 6 days and the survival (PTET98-DFR1 strain [5]; doxycycline treatment initiated 24-h postinfection, to day 12 postinfection) was “all mice survived the duration of the experiment”.

With `Nc1nc2[nH]cc(CCc3ccc(C(=O)N[C@@H](CCC(=O)O)C(=O)O)cc3)c2c(=O)[nH]1` [Pemetrexed, pemetrexed] the IC50 [1] was 1000 nM, the “inhibition of C. albicans DHFR (in words)” value [1] was “inhibited C. albicans DHFR activity” and the “C. albicans growth inhibition (in words)” value [2] was “antifungal activity at pH 5 but not at pH 7”.

For `C[C@@H]1[C@H](O)[C@@H](C)/C=C/C=C/C=C/C=C/C=C/C=C/C=C/[C@H](O[C@@H]2O[C@H](C)[C@@H](O)[C@H](N)[C@@H]2O)C[C@@H]2O[C@](O)(C[C@@H](O)C[C@@H](O)[C@H](O)CC[C@@H](O)C[C@@H](O)CC(=O)O[C@H]1C)C[C@H](O)[C@H]2C(=O)O` [amphotericin B], the favorable response rate ([3]; patients with disseminated candidiasis) is listed as 62%.

In the case of `OC(Cn1cncn1)(Cn1cncn1)c1ccc(F)cc1F` [fluconazole], the “fraction” value [3] is listed as “approximately one-third”.
